“Also recorded” adds a separate entry of the source.
System: rat βGK promoter
Assay: On-line monitoring of βGK promoter-driven GFP expression (prβGK.GFP) in transfected HIT-T15 cells, islet cells and islets
Assay type: cell-based, hamster (HIT-T15), rat (islet cells)
Details: for effect of inhibitor on insulin-stimulated βGK transcription / promoter activity: 5 mU/ml insulin 5 min, 150 nM BIM, 20 μM PD98059, 10 μM PD169316, 100 μM HNMPA-(AM)3, 400 nM AC, FIG. 5; for effect of inhibitor on insulin-stimulated βGK transcription / promoter activity / effect of inhibitor on insulin-stimulated βGK promoter activity (GFP) in the same co-transfected cell: 25 μM LY294002, 10 nM rapamycin; for effect of inhibitor on insulin-stimulated βGK promoter activity (GFP) in the same co-transfected cell: 5 mU/ml insulin, 400 nM AC, 100 μM HNMPA-(AM)3
Excerpt: Construction of prIns1.GFP has been described earlier (Leibiger et al., 1998a). Vector prIns1.DsRed was generated by exchanging the EGFP-expression cassette versus the DsRed-expression cassette obtained from pDsRed1-1 (Clontech). Plasmid prβGK.GFP (i.e. prβGK-278.GFP) was generated by exchanging the CAT-SV40pA-expression cassette of prβGK-278.CAT (Leibiger et al., 1994a) versus the EGFP-bGHpA-expression cassette obtained from pRcCMVI.GFP (Moede et al., 1999). […] All vector constructions were verified by DNA sequence analysis. […] Expression constructs pCMV5.PKBα, pCMV5.PKBαΔ308/437, pCMV5.PDK1 and pCMV5.PDK1-antisense were kindly provided by Drs. P. Cohen and D. R. Alessi (MRC Phosphorylation Unit, University of Dundee, UK).
HIT cells were reported to show glucose responsiveness at subphysiological concentrations between 0.1 and 2 mM (Sharma et al., 1995). HIT cells were grown in RPMI 1640 medium supplemented with 100 units/ml penicillin, 100 μg/ml streptomycin, 2 mM glutamine and 10% fetal calf serum at 5% CO2 and 37° C. Pancreatic islets were isolated from normally fed male Wistar rats and from mice by collagenase digestion. Isolated islets were incubated overnight at 5% CO2 and 37° C. in RPMI 1640 medium, supplemented as described above. Transfection of HIT-T15 and islet cells was performed overnight by the lipofectamine technique in RPMI 1640 medium, without serum and antibiotics. For on-line monitoring, cells were grown and transfected on 24-mm glass coverslips. Following transfection, HIT cells were cultured for 12-18 h in RPMI 1640 medium containing 0.1 mM glucose, 10% fetal calf serum and supplemented as above. Before stimulation, islets and islet cells were incubated for 2 h in RPMI 1640 medium, supplemented as above but containing 3 mM glucose. All expression constructs were prepared using the Qiagen Plasmid Maxi Kit (Qiagen), except those used to produce the adenoviruses which where purified by ultracentrifugation via a CsCI-gradient (as described in Sambrook et al, 1989).
Islets were transduced with Ad.rβGK.GFP or Ad.CMV.GFP by incubating 50 islets with 1 ml virus-containing medium for 90 min at 37° C. and 5% CO2. Following transduction, islets were washed 3 times with PBS and cultured further in RPMI 1640 medium. Islets were stimulated 40-72 h after transduction, as described below and analyzed by laser-scanning confocal microscopy.
All experiments were performed in RPMI 1640 medium, supplemented as above. Protein kinase inhibitors, antibodies or nifedipine were added to the culture medium 30 min prior to stimulation and were kept in the medium throughout stimulation. After stimulation islets, islet cells and HIT cells were cultured further at substimulatory glucose concentrations (0.1 mM for HIT cells and 3 mM for islets and islet cells). For RNA-analysis, islets and cells were harvested 60 min after start of stimulation, if not indicated otherwise. For analysis of protein kinase activities or tyrosine phosphorylation, cells were harvested immediately following stimulation.
Detection of fluorescence by digital imaging fluorescence microscopy was performed as described previously (Leibiger et al., 1998a; Leibiger et al., 1998b). Briefly, transfected cells were grown on 24-mm glass coverslips. After stimulation the coverslips were placed into a perifusion chamber which was mounted on an inverted microscope (Zeiss Axiovert 135TV). Temperature was kept at 37° C. and the cells were perfused with RPMI 1640 medium. The objective lens used was a Zeiss-Fluar ×40/1.30 oil Imm Korr. Fluorescence imaging was performed with a cooled charged-coupled device camera (CH250 with KAF 1400, Photometrics, Tucson, Ariz.) connected to an imaging system (Inovision) with fluorescence excitation from a SPEX fluorolog-2 CM1T11I spectrofluorometer (Spex Industries).

| Compound | effect of inhibitor on insulin-stimulated βGK transcription / promoter activity | effect of inhibitor on insulin-stimulated βGK promoter activity (GFP) in the same co-transfected cell | βGK promoter-driven GFP fluorescence upon insulin stimulation (5 mU insulin per ml for 5 min, substimulatory glucose) | amount of exogenous insulin required to gain an effect on βGK promoter activation (transfected HIT-T15 cells, supplemented culture medium (FIG. 4B)) [μU per ml] |
| --- | --- | --- | --- | --- |
| CC(=O)OCOC(c1ccc2ccccc2c1)P(=O)(OCOC(C)=O)OCOC(C)=O (stereo not drawn) [HNMPA-(AM)3] | sensitive | abolished |  |  |
| autocamtide-2 related inhibitory peptide | altered neither | no effect |  |  |
| insulin |  |  | increase; also recorded: elevation | 20 |
